Experimental data taken from article PMC9271048, “Probing strigolactone perception mechanisms with rationally designed small-molecule agonists stimulating germination of root parasitic weeds” (Nature Communications, 2022).
Read-outs that look alike come from different tables or passages of the source.

Key:
[1] = system: PaKAI2s (5 KAI2 protein homologs in P. aegyptiaca); test: YLG-based competition assay on KAI2 protein homologs of P. aegyptiaca; type: biochemical, Phelipanche aegyptiaca; details: Supplementary Fig. 27
From the text: (§1) In P. aegyptiaca, 5 KAI2s have been proposed as the SL receptors for the regulation of seed germination. […] The high sequence similarity may explain the consistency of these compounds in inducing germination in both S. hermonthica and P. aegyptiaca.
(§2) The excitation and emission wavelengths of YLG are 480 and 520 nm, respectively. We used a fluorescence spectrophotometer (CARY Eclipse) to detect the fluorescence intensity change of YLG during the enzymatic hydrolysis assay process. All the testing compounds and YLG were dissolved in DMSO and prepared as stock solutions just before use. […] The changes of fluorescence at 520 nm of each well were recorded every 1 min for 30 min. Using the reaction mixture without adding enzyme and tested compounds as the background control. After subtracting the background hydrolysis, a linear fluorescence increase in 8 min was used for further inspection. The IC50 values were determined via fitting relative inhibition percentages with the varying concentrations of compounds in Microsoft Excel.
(§3) Supplementary Fig. 27. Binding of compounds 4a, (R)- and (S)-4a, and 4g-i to the HTL proteins in S. hermonthica and KAI2 protein homologs in P. aegyptiaca. In the competitive inhibitory activity assay, YLG (3 µM) was used as the fluorogenic substrate. Error bar indicates SD (n = 3 biologically independent experiments).
(§4) (1 picture or pasted object on this page, not shown here)

ShHTL7 = ShHTL7 (Striga hermonthica, UniProt A0A0M3PNA2); test: biochemical; type: binding; details: Supplementary Table 7; binding affinities between ShHTL7 and agonists by SPR; read-out: KD/μM
Procedure: We used a sensitive, high-throughput Surface plasmon resonance (SPR) method to examine the binding affinities of the 51 candidates to the recombinant ShHTL7 protein, which was immobilized on the CM5 sensor chip. rac-GR24 was used as a positive control.
The interactions of small molecules with recombinant ShHTL7 were evaluated using the Biacore T200 system (GE Healthcare, USA) at 25 °C[47]. The purified ShHTL7 protein was immobilized on a CM5 sensor chip using the standard amine coupling procedure. […] PBS-P (10 mM phosphate buffer, 2.7 mM KCl, 137 mM NaCl, 0.05% Surfactant P20) containing 0.5% DMSO was used as the running buffer. For the screening experiments, candidates with different structures at 50 μM in the running buffer were injected individually at a flow rate of 30 μL min^−1. For binding affinity studies, compounds with different concentrations in running buffer were used. During the experiments, both the contact and dissociation times were set as 1 min. Data analysis was performed using the Biacore Evaluation Software (T200 Version 2.0). The affinity values (KD) were obtained by the kinetics analysis or the steady-state affinity method.

[2] = Chemical reactivity analysis (HPLC, methanol/PBS pH 7.4); type: physicochemical
Procedure: Chemical reactivity is an important factor in the bioactivity of natural and synthetic SLs.
One hundred twenty microliters of sample solution was added to a solution of PBS (10 mM, pH 7.4, 810 μL) and methanol (270 μL). The solution was stirred vigorously for 30 s and then transferred to HPLC vial, and the vial was stored at 26 ± 1 °C. […] The analytical column was Extend-C18 (4.6 mm × 150 mm × 5 μm). The mobile phases were CH3CN and H2O (containing 0.1% HCO2H), VCH3CN:VH2O = 50:50, with a flow rate of 1 mL/min, and an injection volume of 5 μL. The percentage of remaining compounds in the solution was calculated from the peak area. The half-life times (t1/2) of samples were calculated.

[3] = system: ShHTLs (10 HTL proteins in S. hermonthica); test: YLG-based competition assay on HTL proteins of S. hermonthica; type: biochemical, Striga hermonthica; details: Supplementary Fig. 27
From the text: as §1, §2, §3, §4

[4] = KAI2C, YLG competition, read-out: IC50, replicate 1
[5] = KAI2C, YLG competition, read-out: IC50, replicate 2
[6] = KAI2C, YLG competition, read-out: IC50, replicate 3
[7] = KAI2C, average of 3 replicates, read-out: IC50, average
[8] = KAI2d1, YLG competition, read-out: IC50, replicate 1
[9] = KAI2d1, YLG competition, read-out: IC50, replicate 2
[10] = KAI2d1, YLG competition, read-out: IC50, replicate 3
[11] = KAI2d1, average of 3 replicates, read-out: IC50, average
[12] = KAI2d2, YLG competition, read-out: IC50, replicate 1
[13] = KAI2d2, YLG competition, read-out: IC50, replicate 2
[14] = KAI2d2, YLG competition, read-out: IC50, replicate 3
[15] = KAI2d2, average of 3 replicates, read-out: IC50, average
[16] = KAI2d3, YLG competition, read-out: IC50, replicate 1
[17] = KAI2d3, YLG competition, read-out: IC50, replicate 2
[18] = KAI2d3, YLG competition, read-out: IC50, replicate 3
[19] = KAI2d3, average of 3 replicates, read-out: IC50, average
[20] = KAI2d4, YLG competition, read-out: IC50, replicate 1
[21] = KAI2d4, YLG competition, read-out: IC50, replicate 2
[22] = KAI2d4, YLG competition, read-out: IC50, replicate 3
[23] = KAI2d4, average of 3 replicates, read-out: IC50, average
[24] = ShHTL2, YLG competition, read-out: IC50, replicate 1
[25] = ShHTL2, YLG competition, read-out: IC50, replicate 2
[26] = ShHTL2, YLG competition, read-out: IC50, replicate 3
[27] = ShHTL2, average of 3 replicates, read-out: IC50, average
[28] = ShHTL3, YLG competition, read-out: IC50, replicate 1
[29] = ShHTL3, YLG competition, read-out: IC50, replicate 2
[30] = ShHTL3, YLG competition, read-out: IC50, replicate 3
[31] = ShHTL3, average of 3 replicates, read-out: IC50, average
[32] = ShHTL4, YLG competition, read-out: IC50, replicate 1
[33] = ShHTL4, YLG competition, read-out: IC50, replicate 2
[34] = ShHTL4, YLG competition, read-out: IC50, replicate 3
[35] = ShHTL4, average of 3 replicates, read-out: IC50, average
[36] = ShHTL5, YLG competition, read-out: IC50, replicate 1
[37] = ShHTL5, YLG competition, read-out: IC50, replicate 2
[38] = ShHTL5, YLG competition, read-out: IC50, replicate 3
[39] = ShHTL5, average of 3 replicates, read-out: IC50, average
[40] = ShHTL6, YLG competition, read-out: IC50, replicate 1
[41] = ShHTL6, YLG competition, read-out: IC50, replicate 2
[42] = ShHTL6, YLG competition, read-out: IC50, replicate 3
[43] = ShHTL6, average of 3 replicates, read-out: IC50, average
[44] = ShHTL8, YLG competition, read-out: IC50, replicate 1
[45] = ShHTL8, YLG competition, read-out: IC50, replicate 2
[46] = ShHTL8, YLG competition, read-out: IC50, replicate 3
[47] = ShHTL8, average of 3 replicates, read-out: IC50, average
[48] = ShHTL9, YLG competition, read-out: IC50, replicate 1
[49] = ShHTL9, YLG competition, read-out: IC50, replicate 2
[50] = ShHTL9, YLG competition, read-out: IC50, replicate 3
[51] = ShHTL9, average of 3 replicates, read-out: IC50, average
[52] = ShHTL10, YLG competition, read-out: IC50, replicate 1
[53] = ShHTL10, YLG competition, read-out: IC50, replicate 2
[54] = ShHTL10, YLG competition, read-out: IC50, replicate 3
[55] = ShHTL10, average of 3 replicates, read-out: IC50, average
[56] = ShHTL11, YLG competition, read-out: IC50, replicate 1
[57] = ShHTL11, YLG competition, read-out: IC50, replicate 2
[58] = ShHTL11, YLG competition, read-out: IC50, replicate 3
[59] = ShHTL11, average of 3 replicates, read-out: IC50, average

ShHTL7, sequence (A0A0M3PNA2 entry or part of it): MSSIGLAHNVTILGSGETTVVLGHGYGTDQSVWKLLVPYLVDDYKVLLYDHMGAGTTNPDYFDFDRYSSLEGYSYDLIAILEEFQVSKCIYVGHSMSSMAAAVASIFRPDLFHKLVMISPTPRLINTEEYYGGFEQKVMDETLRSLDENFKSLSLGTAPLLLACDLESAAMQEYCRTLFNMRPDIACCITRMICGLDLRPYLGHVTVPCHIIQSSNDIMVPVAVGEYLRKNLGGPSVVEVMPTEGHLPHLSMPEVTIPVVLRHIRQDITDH

CC1=CC(CC(=O)N2CCN(C(=O)COc3ccc(Br)cc3C)CC2)OC1=O (stereo not drawn) [4i]
IC50 [1, 4]: 48.7 µM
IC50 [1, 5]: 57 µM
IC50 [1, 6]: 49.5 µM
IC50 [1, 7]: 51.7 µM
IC50 [1, 8]: 24 µM
IC50 [1, 9]: 16.7 µM
IC50 [1, 10]: 20.1 µM
IC50 [1, 11]: 20.3 µM
IC50 [1, 12]: 54.2 µM
IC50 [1, 13]: 57.7 µM
IC50 [1, 14]: 57.5 µM
IC50 [1, 15]: 56.5 µM
IC50 [1, 16]: 51.4 µM
IC50 [1, 17]: 41.1 µM
IC50 [1, 18]: 40.4 µM
IC50 [1, 19]: 44.3 µM
IC50 [1, 20]: 30.7 µM
IC50 [1, 21]: 31.7 µM
IC50 [1, 22]: 26.9 µM
IC50 [1, 23]: 29.8 µM
Kd (ShHTL7): 2.93 ± 0.087 µM
reactivity in methanol/PBS ([2]; 1:3 methanol and PBS (10 mM) pH 7.4): no apparent hydrolysis was observed in 6 days
half-life time (t1/2), source data average ([2]; Supplementary Fig. 10 source data, methanol/PBS pH 7.4, 26 °C): >144 h
IC50 [3, 24]: 50.6 µM
IC50 [3, 25]: 70.1 µM
IC50 [3, 26]: 65.1 µM
IC50 [3, 27]: 61.9 µM
IC50 [3, 28]: > 100 µM
IC50 [3, 29]: > 100 µM
IC50 [3, 30]: > 100 µM
IC50 [3, 31]: > 100 µM
IC50 [3, 32]: 15 µM
IC50 [3, 33]: 21.2 µM
IC50 [3, 34]: 16.4 µM
IC50 [3, 35]: 17.5 µM
IC50 [3, 36]: 48.9 µM
IC50 [3, 37]: 42.2 µM
IC50 [3, 38]: 43 µM
IC50 [3, 39]: 44.7 µM
IC50 [3, 40]: 79.2 µM
IC50 [3, 41]: 55 µM
IC50 [3, 42]: 69.4 µM
IC50 [3, 43]: 67.9 µM
IC50 [3, 44]: 72.8 µM
IC50 [3, 45]: 71.1 µM
IC50 [3, 46]: 75.4 µM
IC50 [3, 47]: 73.1 µM
IC50 [3, 48]: 22.6 µM
IC50 [3, 49]: 24.8 µM
IC50 [3, 50]: 12.7 µM
IC50 [3, 51]: 20.1 µM
IC50 [3, 52]: 69.6 µM
IC50 [3, 53]: 67.6 µM
IC50 [3, 54]: 57.8 µM
IC50 [3, 55]: 65 µM
IC50 [3, 56]: 91.9 µM
IC50 [3, 57]: 101 µM
IC50 [3, 58]: 86 µM
IC50 [3, 59]: 93 µM

CC1=C[C@@H](OC(=O)N2CCN(C(=O)COc3ccc(Br)cc3C)CC2)OC1=O [(R)-4a]
IC50 [1, 4]: 53.2 µM
IC50 [1, 5]: 56.3 µM
IC50 [1, 6]: 44.7 µM
IC50 [1, 7]: 51.4 µM
IC50 [1, 8]: > 100 µM
IC50 [1, 9]: > 100 µM
IC50 [1, 10]: > 100 µM
IC50 [1, 11]: > 100 µM
IC50 [1, 12]: > 100 µM
IC50 [1, 13]: > 100 µM
IC50 [1, 14]: > 100 µM
IC50 [1, 15]: > 100 µM
IC50 [1, 16]: 84.6 µM
IC50 [1, 17]: 78.5 µM
IC50 [1, 18]: 91.5 µM
IC50 [1, 19]: 84.9 µM
IC50 [1, 20]: > 100 µM
IC50 [1, 21]: > 100 µM
IC50 [1, 22]: > 100 µM
IC50 [1, 23]: > 100 µM
Kd (ShHTL7): 1.69 ± 0.04 µM
half-life at 0.5 mM ([2]; methanol/phosphate-buffered saline mixture, Supplementary Fig. 10 source data, methanol/PBS pH 7.4, 26 °C, read-out: half-life time (t1/2), source data average (converted)): 6.99 h
IC50 [3, 24]: 69.7 µM
IC50 [3, 25]: 64.8 µM
IC50 [3, 26]: 63.8 µM
IC50 [3, 27]: 66.1 µM
IC50 [3, 28]: 62.1 µM
IC50 [3, 29]: 76.7 µM
IC50 [3, 30]: 63.2 µM
IC50 [3, 31]: 67.3 µM
IC50 [3, 32]: 22.9 µM
IC50 [3, 33]: 19.8 µM
IC50 [3, 34]: 20.3 µM
IC50 [3, 35]: 21 µM
IC50 [3, 36]: 48.9 µM
IC50 [3, 37]: 46.9 µM
IC50 [3, 38]: 35.9 µM
IC50 [3, 39]: 43.9 µM
IC50 [3, 40]: > 100 µM
IC50 [3, 41]: > 100 µM
IC50 [3, 42]: > 100 µM
IC50 [3, 43]: > 100 µM
IC50 [3, 44]: 58.4 µM
IC50 [3, 45]: 53.3 µM
IC50 [3, 46]: 69.9 µM
IC50 [3, 47]: 60.5 µM
IC50 [3, 48]: 50.2 µM
IC50 [3, 49]: 43.9 µM
IC50 [3, 50]: 47.8 µM
IC50 [3, 51]: 47.3 µM
IC50 [3, 52]: 59.5 µM
IC50 [3, 53]: 43.4 µM
IC50 [3, 54]: 54.6 µM
IC50 [3, 55]: 52.5 µM
IC50 [3, 56]: > 100 µM
IC50 [3, 57]: > 100 µM
IC50 [3, 58]: > 100 µM
IC50 [3, 59]: > 100 µM
